The values below come from patent US7119077B1, “Multimeric forms of members of the steroid/thyroid superfamily of receptors with the ultraspiracle receptor” (The Salk Institute for Biological Studies, priority 1990, dated 2006).

Series [1] addresses EcR/usp complex (Drosophila melanogaster, UniProt P20153+P34021). Particulars: cold oligonucleotide competitor, in vitro translated EcR and usp.
Description: To generate protein in vitro, suitable plasmids for human (h)RARα, hTRB, hVDR, rat PPAR, Drosophila (d)usp and dEcR were linearized with restriction enzyme 3′ of the termination codon. The linearized templates were used for in vitro transcription and then translation using rabbit reticulocyte lysate according to manufacturer's instruction (Promega). […] Schneider cell extracts were prepared following the procedures in Damm et al., Nature Vol. 339:593–597 (1989) and Umesono et al. (1991), supra. The extraction buffer contained 0.4 M KCl in 20 mM HEPES pH 7.5, 20% glycerol, 2 mM DTT and 1 mM PMSF.
For gel mobility shift assay, proteins were incubated with binding buffer, which contained 100 mM KCl, 7.5% glycerol, 20 mM HEPES pH 7.5, 2 mM DTT and 0.1% NP-40, on ice for 20 minutes in the presence of 2 μg of nonspecific competitor poly dI-dC and other oligo competitors. Then approximately 1 ng of ^32P-dCTP probe, which was labelled to specific activity about 1–5×10^8 cpm/μg by fill-in reaction with Klenow fragments, was added to the reaction and incubated at room temperature for 20 minutes. […] The reaction was then loaded into 5% non-denaturing polyacrylamide gel in 0.5×TBE running buffer [1×TBE comprises 0.089 M Tris borate, 0.089 M boric acid and 0.002 M EDTA]. After electrophoresis, the gel was dried for autoradiography.
The ability of EcR/usp complex to recognize this EcRE was examined.
The target in series [2] is T1, RARα (human) (Homo sapiens, UniProt P10276 P10276:1-462).
T1 sequence: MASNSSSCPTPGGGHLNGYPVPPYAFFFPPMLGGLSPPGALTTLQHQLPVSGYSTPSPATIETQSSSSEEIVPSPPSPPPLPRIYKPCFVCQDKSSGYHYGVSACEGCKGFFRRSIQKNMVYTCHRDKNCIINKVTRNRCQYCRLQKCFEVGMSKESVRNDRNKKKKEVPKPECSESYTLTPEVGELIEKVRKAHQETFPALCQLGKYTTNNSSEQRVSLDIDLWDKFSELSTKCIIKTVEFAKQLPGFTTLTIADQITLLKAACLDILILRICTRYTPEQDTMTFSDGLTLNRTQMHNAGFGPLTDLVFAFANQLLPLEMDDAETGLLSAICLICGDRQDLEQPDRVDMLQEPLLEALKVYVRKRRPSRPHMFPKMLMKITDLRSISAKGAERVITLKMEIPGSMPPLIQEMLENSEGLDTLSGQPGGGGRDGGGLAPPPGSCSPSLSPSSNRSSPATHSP
Nature of the series: EMSA; RARα alone. Particulars: label: 32P. The method, then:
(§1) For gel mobility shift assay, proteins were incubated with binding buffer, which contained 100 mM KCl, 7.5% glycerol, 20 mM HEPES pH 7.5, 2 mM DTT and 0.1% NP-40, on ice for 20 minutes in the presence of 2 μg of nonspecific competitor poly dI-dC and other oligo competitors. Then approximately 1 ng of ^32P-dCTP probe, which was labelled to specific activity about 1-5×10^8 cpm/μg by fill-in reaction with Klenow fragments, was added to the reaction and incubated at room temperature for 20 minutes. Antiserum or preimmune serum was added 10 minutes after the probe was added. The reaction was then loaded into 5% non-denaturing polyacrylamide gel in 0.5×TBE running buffer [1×TBE comprises 0.089 M Tris borate, 0.089 M boric acid and 0.002 M EDTA]. After electrophoresis, the gel was dried for autoradiography.
In gel mobility shift assays using a ^32P-labelled natural RAR response element—βRARE [see SEQ ID NO:15, see also de The et al., in Nature Vol. 343:177–180 (1990); and Sucov et al., in Proc. Natl. Acad. Sci. USA Vol. 87:5392–5398 (1990)] as the probe, in vitro translated RARα was incubated with probe under binding conditions either alone or with 2 µg of S2 extracts or embryo extracts.
Neither in vitro translated usp alone, nor RARα alone, bound to a βRARE probe. […] This complex comigrated with the complex detected in the RAR and cell extract mixing experiments. […]

Series [3] has as its target T2, usp/RARα heterodimer (Drosophila melanogaster / Homo sapiens, UniProt P20153;P10276 P20153:1-508,P10276:1-462).
T2 sequence 1: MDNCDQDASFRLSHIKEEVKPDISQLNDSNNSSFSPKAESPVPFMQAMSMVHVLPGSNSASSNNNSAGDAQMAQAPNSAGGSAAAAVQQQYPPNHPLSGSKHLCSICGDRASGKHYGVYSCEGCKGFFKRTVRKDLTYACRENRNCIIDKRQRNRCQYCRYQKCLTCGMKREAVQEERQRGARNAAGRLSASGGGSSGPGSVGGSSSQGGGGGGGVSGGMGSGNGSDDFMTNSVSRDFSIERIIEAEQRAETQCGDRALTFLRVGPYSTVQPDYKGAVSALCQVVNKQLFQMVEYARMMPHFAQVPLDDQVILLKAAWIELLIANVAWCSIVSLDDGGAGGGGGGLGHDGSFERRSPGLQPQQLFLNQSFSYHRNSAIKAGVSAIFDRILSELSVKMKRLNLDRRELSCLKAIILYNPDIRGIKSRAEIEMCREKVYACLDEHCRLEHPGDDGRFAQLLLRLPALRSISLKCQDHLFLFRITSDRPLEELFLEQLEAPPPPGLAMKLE
T2 sequence 2: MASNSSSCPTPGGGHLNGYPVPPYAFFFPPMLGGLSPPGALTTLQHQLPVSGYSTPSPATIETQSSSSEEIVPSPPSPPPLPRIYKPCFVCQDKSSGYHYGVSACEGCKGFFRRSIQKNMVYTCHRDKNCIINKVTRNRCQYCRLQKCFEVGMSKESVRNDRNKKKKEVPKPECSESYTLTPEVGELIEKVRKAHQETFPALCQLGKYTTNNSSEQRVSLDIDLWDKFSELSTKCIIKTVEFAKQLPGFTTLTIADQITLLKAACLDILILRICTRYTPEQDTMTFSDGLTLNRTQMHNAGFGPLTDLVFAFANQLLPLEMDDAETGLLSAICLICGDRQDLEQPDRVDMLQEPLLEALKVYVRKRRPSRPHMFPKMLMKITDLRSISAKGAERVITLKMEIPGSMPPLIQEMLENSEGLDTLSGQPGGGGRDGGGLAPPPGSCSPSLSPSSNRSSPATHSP
The series is described as follows: EMSA; prominent complex; affected by usp and RARα antibodies. As to conditions: label: 32P. The method, then:
as §1
(§2) Neither in vitro translated usp alone, nor RARα alone, bound to a βRARE probe. However, when the two proteins were incubated together, a prominent retarded complex appeared. This complex comigrated with the complex detected in the RAR and cell extract mixing experiments. […] Either the affinity purified usp antibody, or the RARα, specifically affected the protein/ DNA complex, while preimmune sera had no effect. […]

For series [4], the target named is T3, ultraspiracle (usp) (Drosophila melanogaster, UniProt P20153 SEQ:1-513).
T3 sequence: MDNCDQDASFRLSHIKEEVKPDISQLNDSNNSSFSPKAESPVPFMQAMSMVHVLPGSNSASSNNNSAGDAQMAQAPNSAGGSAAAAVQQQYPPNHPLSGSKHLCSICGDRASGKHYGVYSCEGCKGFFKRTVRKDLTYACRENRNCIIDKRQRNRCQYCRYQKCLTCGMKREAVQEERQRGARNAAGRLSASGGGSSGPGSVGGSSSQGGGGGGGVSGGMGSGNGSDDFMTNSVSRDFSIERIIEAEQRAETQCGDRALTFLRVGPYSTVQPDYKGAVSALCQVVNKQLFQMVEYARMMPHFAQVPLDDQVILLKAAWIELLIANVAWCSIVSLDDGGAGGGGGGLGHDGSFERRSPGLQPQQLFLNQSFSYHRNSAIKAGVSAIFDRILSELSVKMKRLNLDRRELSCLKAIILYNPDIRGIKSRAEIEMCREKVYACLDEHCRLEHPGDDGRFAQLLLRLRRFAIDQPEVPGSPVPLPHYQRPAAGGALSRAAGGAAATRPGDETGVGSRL
Nature of the series: EMSA; usp alone. As to conditions: label: 32P. On the procedure:
as §1, §2

Sequence of EcR/usp complex (P34021 whole entry, one chain of several): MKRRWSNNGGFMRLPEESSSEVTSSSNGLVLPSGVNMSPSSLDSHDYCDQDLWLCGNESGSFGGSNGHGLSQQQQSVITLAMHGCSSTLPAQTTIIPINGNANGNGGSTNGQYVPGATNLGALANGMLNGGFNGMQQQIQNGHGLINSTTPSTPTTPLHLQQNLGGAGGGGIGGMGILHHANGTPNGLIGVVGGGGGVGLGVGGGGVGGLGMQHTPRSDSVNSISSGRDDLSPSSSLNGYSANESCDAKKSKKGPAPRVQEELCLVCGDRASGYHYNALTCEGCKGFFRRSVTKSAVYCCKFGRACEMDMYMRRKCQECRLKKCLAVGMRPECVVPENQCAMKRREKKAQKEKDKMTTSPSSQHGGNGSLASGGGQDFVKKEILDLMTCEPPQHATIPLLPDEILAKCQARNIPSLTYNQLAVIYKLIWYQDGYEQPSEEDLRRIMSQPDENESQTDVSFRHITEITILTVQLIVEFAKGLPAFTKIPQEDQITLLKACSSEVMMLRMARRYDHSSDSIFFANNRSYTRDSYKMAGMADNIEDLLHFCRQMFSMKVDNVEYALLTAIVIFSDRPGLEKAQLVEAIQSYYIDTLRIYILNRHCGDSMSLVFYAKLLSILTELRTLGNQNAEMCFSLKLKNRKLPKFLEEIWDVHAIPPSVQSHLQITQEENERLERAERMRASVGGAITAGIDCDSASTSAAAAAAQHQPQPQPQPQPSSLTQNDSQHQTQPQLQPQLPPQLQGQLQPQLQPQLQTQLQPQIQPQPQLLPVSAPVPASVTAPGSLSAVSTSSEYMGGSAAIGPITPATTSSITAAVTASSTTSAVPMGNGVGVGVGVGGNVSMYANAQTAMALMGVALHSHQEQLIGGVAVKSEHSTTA

Regarding “11N-EcRE: mutant hsp27-EcRE, two nucleotides at the ends of the palindrome and the flanking sequence changed (DNA ATGCTGTGCATTGAACGTGCTCGA; further chemistry not given here)”, the “competition of EcR/usp binding to hsp27-EcRE” value in series [1] is recorded as “did not compete”.
Same read-out and setting: with “15N-EcRE: back mutation of hsp27-EcRE which regenerated the palindrome motif (DNA ATGAAGTGCATTGAACCCGCTCGA; further chemistry not given here)” the entry was “effective competition”; with “Eip28/29-EcRE: EcRE derived from the Drosophila Eip28/29 gene, composite element with direct repeat and degenerated palindromic motif (DNA TAAAGGATCTTGACCCCAATGAACTTCTTA; further chemistry not given here)”, “can effectively compete”.

B1: βRARE (DR5) (dsDNA)
DNA 1: GGTTCACCGAAAGTTCA
DNA 2: TGAACTTTCGGTGAACC
On to B1, for which the binding result is “no binding” in series [2], “binds” in series [3] and “no binding” in series [4].
